Source: patent publication US10428044B2, “3-amino-1,5,6,7-tetrahydro-4H-indol-4-ones” (Bayer Pharma Aktiengesellschaft, priority 2014, dated 2019)

Target: (recombinant) catalytic domain of human Bub1 (amino acids 704-1085) (Homo sapiens (Human), UniProt O43683)
Assay: Bub1 kinase assay (TR-FRET)
Format: biochemical
Conditions: ATP 10 μM final, peptide substrate 1 μM final, 60 min at 22° C., read-out: Biological Assay: Bub1 kinase assay median IC50
In short: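 Readout was TR-FRET between a Eu-labeled antibody complex recognizing phosphoserine and streptavidin-XL665 on the biotinylated peptide, after EDTA stop and 1 h at 22° C. The kinase reaction ran for 60 min at 22° C. Values are means or medians of repeat tests, from 4-parameter fits normalized to enzyme-free and inhibitor-free controls.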

Sequence of (recombinant) catalytic domain of human Bub1 (amino acids 704-1085) (O43683 704-1085): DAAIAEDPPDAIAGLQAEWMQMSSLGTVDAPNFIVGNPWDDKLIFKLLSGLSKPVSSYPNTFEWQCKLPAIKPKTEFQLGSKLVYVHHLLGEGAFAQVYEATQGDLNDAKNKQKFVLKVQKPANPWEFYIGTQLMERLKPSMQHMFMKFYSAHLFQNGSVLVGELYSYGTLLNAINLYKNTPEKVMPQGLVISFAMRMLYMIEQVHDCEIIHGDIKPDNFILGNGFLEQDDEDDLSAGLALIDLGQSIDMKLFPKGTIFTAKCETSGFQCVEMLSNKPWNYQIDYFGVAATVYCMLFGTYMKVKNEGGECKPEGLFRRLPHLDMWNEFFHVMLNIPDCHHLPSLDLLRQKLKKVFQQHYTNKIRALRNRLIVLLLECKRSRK

Row | SMILES | IC50 [nM]
1 | CC(=O)N(C(C)=O)c1cc(-c2[nH]c3c(c2Nc2ccccc2)C(=O)CC(C)(C)C3)ccn1 [Example 133, N-acetyl-N-{4-[6,6-dimethyl-4-oxo-3-(phenylamino)-4,5,6,7-tetrahydro-1H-indol-2 yl]pyridin-2-yl}acetamide] | 49.2
2 | O=C1CCCc2[nH]c(-c3ccncc3)c(Nc3ccc(F)c(F)c3)c21 [Example 134, 3-[(3,4-difluorophenyl)amino]-2-(pyridin-4-yl)-1,5,6,7-tetrahydro-4H-indol-4-one] | 49.7
3 | CC1(C)CC(=O)c2c([nH]c(-c3c(F)cncc3F)c2Nc2ccccc2)C1 [Example 135, 2-(3,5-difluoropyridin-4-yl)-6,6-dimethyl-3-(phenylamino)-1,5,6,7-tetrahydro-4H-indol-4-one] | 188
4 | Nc1cc(-c2[nH]c3c(c2Nc2cccc(F)c2)C(=O)CCC3)ccn1 [Example 138, 2-(2-aminopyridin-4-yl)-3-[(3-fluorophenyl)amino]-1,5,6,7-tetrahydro-4H-indol-4-one] | 92.4
5 | O=C1CCCc2[nH]c(-c3ccncc3Cl)c(Nc3ccc(F)cc3)c21 [Example 142, 2-(3-chloropyridin-4-yl)-3-[(4-fluorophenyl)amino]-1,5,6,7-tetrahydro-4H-indol-4-one] | 68.5
6 | CCNC(=O)c1cccc(Nc2c(-c3ccncc3)[nH]c3c2C(=O)CC(C)(C)C3)c1 [Example 144, 3-{[6,6-dimethyl-4-oxo-2-(pyridin-4-yl)-4,5,6,7-tetrahydro-1H-indol-3-yl]amino}-N-ethylbenzamide] | 1720
7 | CNc1cc(-c2[nH]c3c(c2Nc2ccccc2)C(=O)CC(C)(C)C3)ccn1 [Example 145, 6,6-dimethyl-2-[2-(methylamino)pyridin-4-yl]-3-(phenylamino)-1,5,6,7-tetrahydro-4H-indol-4-one] | 148
8 | CC1(C)CC(=O)c2c([nH]c(-c3ccncc3)c2Nc2ccc(F)c(C#N)c2)C1 [Example 147, 5-{[6,6-dimethyl-4-oxo-2-(pyridin-4-yl)-4,5,6,7-tetrahydro-1H-indol-3-yl]amino}-2-fluorobenzonitrile] | 258
9 | CC1(C)CC(=O)c2c([nH]c(-c3ccncc3)c2Nc2cccc(C3(C)OCCO3)c2)C1 [Example 153, 6,6-dimethyl-3-{[3-(2-methyl-1,3-dioxolan-2-yl)phenyl]amino}-2-(pyridin-4-yl)-1,5,6,7-tetrahydro-4H-indol-4-one] | 11500
10 | COC(C)c1cccc(Nc2c(-c3ccncc3)[nH]c3c2C(=O)CC(C)(C)C3)c1 (stereo not shown) [Example 156, 3-{[3-(1-methoxyethyl)phenyl]amino}-6,6-dimethyl-2-(pyridin-4-yl)-1,5,6,7-tetrahydro-4H-indol-4-one] | 743
11 | CC1(C)CC(=O)c2c([nH]c(-c3ccncc3)c2Nc2ccc3ccccc3c2)C1 [Example 158, 6,6-dimethyl-3-(naphthalen-2-ylamino)-2-(pyridin-4-yl)-1,5,6,7-tetrahydro-4H-indol-4-one] | 95.6
12 | CC1(C)CC(=O)c2c([nH]c(-c3ccncc3)c2Nc2ccccc2Oc2ccccc2)C1 [Example 159, 6,6-dimethyl-3-[(2-phenoxyphenyl)amino]-2-(pyridin-4-yl)-1,5,6,7-tetrahydro-4H-indol-4-one] | 1060
13 | O=C1CCCc2[nH]c(-c3ccnc(N(C(=O)C4CC4)C(=O)C4CC4)c3)c(Nc3cccc(F)c3)c21 [Example 162, N-(cyclopropylcarbonyl)-N-(4-{3-[(3-fluorophenyl)amino]-4-oxo-4,5,6,7-tetrahydro-1H-indol-2-yl}pyridin-2-yl)cyclopropanecarboxamide] | 85.6
14 | CCCn1c2c(c(Nc3ccccc3)c1-c1ccncc1)C(=O)CCC2 [Example 171, 3-(phenylamino)-1-propyl-2-(pyridin-4-yl)-1,5,6,7-tetrahydro-4H-indol-4-one] | 14.4
15 | COC(=O)CCn1c2c(c(Nc3ccccc3)c1-c1ccncc1)C(=O)CCC2 [Example 172, methyl 3-[4-oxo-3-(phenylamino)-2-(pyridin-4-yl)-4,5,6,7-tetrahydro-1H-indol-1-yl]propanoate] | 1050
16 | O=C(O)CCn1c2c(c(Nc3ccccc3)c1-c1ccncc1)C(=O)CCC2 [Example 173, 3-[4-oxo-3-(phenylamino)-2-(pyridin-4-yl)-4,5,6,7-tetrahydro-1H-indol-1-yl]propanoic acid] | 474
17 | NC(=O)CCn1c2c(c(Nc3ccccc3)c1-c1ccncc1)C(=O)CCC2 [Example 174, 3-[4-oxo-3-(phenylamino)-2-(pyridin-4-yl)-4,5,6,7-tetrahydro-1H-indol-1-yl]propanamide] | 220
18 | CCn1c2c(c(Nc3ccccc3)c1-c1ccncc1Cl)C(=O)CCC2 [Example 177, 2-(3-chloropyridin-4-yl)-1-ethyl-3-(phenylamino)-1,5,6,7-tetrahydro-4H-indol-4-one] | 5670

Continued by falling IC50, values first:

Row | IC50 [nM] | SMILES
19 | 3000 | CCC(O)c1cccc(Nc2c(-c3ccncc3)[nH]c3c2C(=O)CC(C)(C)C3)c1 (stereo not shown) [Example 154, 3-{[3-(1-hydroxypropyl)phenyl]amino}-6,6-dimethyl-2-(pyridin-4-yl)-1,5,6,7-tetrahydro-4H-indol-4-one]
20 | 2040 | CS(=O)(=O)CCn1c2c(c(Nc3ccccc3)c1-c1ccncc1)C(=O)CCC2 [Example 176, 1-[2-(methylsulfonyl)ethyl]-3-(phenylamino)-2-(pyridin-4-yl)-1,5,6,7-tetrahydro-4H-indol-4-one]
21 | 1890 | COc1cc(-c2[nH]c3c(c2Nc2ccccc2)C(=O)CCC3)ccn1 [Example 150, 2-(2-methoxypyridin-4-yl)-3-(phenylamino)-1,5,6,7-tetrahydro-4H-indol-4-one]
22 | 1710 | CC1(C)CC(=O)c2c([nH]c(-c3ccncc3)c2Nc2cccc(C(O)C(F)(F)F)c2)C1 (stereo not shown) [Example 155, 6,6-dimethyl-2-(pyridin-4-yl)-3-{[3-(2,2,2-trifluoro-1-hydroxyethyl)phenyl]amino}-1,5,6,7-tetrahydro-4H-indol-4-one]
23 | 1690 | CC1(C)CC(=O)c2c([nH]c(-c3ccnc(NC(=O)C(F)F)c3)c2Nc2ccccc2)C1 [Example 166, N-{4-[6,6-dimethyl-4-oxo-3-(phenylamino)-4,5,6,7-tetrahydro-1H-indol-2-yl]pyridin-2-yl}-2,2-difluoroacetamide]
24 | 924 | O=C1CCCc2[nH]c(-c3c(F)cncc3F)c(Nc3cccc(F)c3)c21 [Example 136, 2-(3,5-difluoropyridin-4-yl)-3-[(3-fluorophenyl)amino]-1,5,6,7-tetrahydro-4H-indol-4-one]
25 | 764 | CC1(C)CC(=O)c2c([nH]c(-c3ccncc3)c2Nc2cccc3ccccc23)C1 [Example 157, 6,6-dimethyl-3-(naphthalen-1-ylamino)-2-(pyridin-4-yl)-1,5,6,7-tetrahydro-4H-indol-4-one]
26 | 558 | Cc1cc(-c2[nH]c3c(c2Nc2ccccc2)C(=O)CCC3)ccn1 [Example 143, 2-(2-methylpyridin-4-yl)-3-(phenylamino)-1,5,6,7-tetrahydro-4H-indol-4-one]
27 | 479 | CC1(C)CC(=O)c2c([nH]c(-c3ccncc3)c2Nc2ccc(F)c(OC(F)(F)F)c2)C1 [Example 148, 3-{[4-fluoro-3-(trifluoromethoxy)phenyl]amino}-6,6-dimethyl-2-(pyridin-4-yl)-1,5,6,7-tetrahydro-4H-indol-4-one]
28 | 239 | O=C1CCCc2[nH]c(-c3ccnc(Br)c3)c(Nc3ccccc3)c21 [Example 152, 2-(2-bromopyridin-4-yl)-3-(phenylamino)-1,5,6,7-tetrahydro-4H-indol-4-one]
29 | 217 | O=C1CCCc2c1c(Nc1ccccc1)c(-c1ccncc1)n2CCCO [Example 175, 1-(3-hydroxypropyl)-3-(phenylamino)-2-(pyridin-4-yl)-1,5,6,7-tetrahydro-4H-indol-4-one]
30 | 204 | CC1(C)CC(=O)c2c([nH]c(-c3ccncc3)c2Nc2ccccc2-c2ccccc2)C1 [Example 160, 3-(biphenyl-2-ylamino)-6,6-dimethyl-2-(pyridin-4-yl)-1,5,6,7-tetrahydro-4H-indol-4-one]
31 | 126 | O=C1CCCc2[nH]c(-c3ccnc(N(C(=O)C4CC4)C(=O)C4CC4)c3)c(Nc3ccccc3)c21 [Example 163, N-(cyclopropylcarbonyl)-N-{4-[4-oxo-3-(phenylamino)-4,5,6,7-tetrahydro-1H-indol-2-yl]pyridin-2-yl}cyclopropanecarboxamide]
32 | 125 | Cn1c2c(c(Nc3ccccc3)c1-c1ccncc1)C(=O)CCC2 [Example 169, 1-methyl-3-(phenylamino)-2-(pyridin-4-yl)-1,5,6,7-tetrahydro-4H-indol-4-one]
33 | 113 | Nc1cc(-c2[nH]c3c(c2Nc2ccccc2)C(=O)CCC3)ccn1 [Example 139, 2-(2-aminopyridin-4-yl)-3-(phenylamino)-1,5,6,7-tetrahydro-4H-indol-4-one]
34 | 94.1 | Cc1cc(-c2[nH]c3c(c2Nc2ccccc2)C(=O)CC(C)(C)C3)ccn1 [Example 149, 6,6-dimethyl-2-(2-methylpyridin-4-yl)-3-(phenylamino)-1,5,6,7-tetrahydro-4H-indol-4-one]
35 | 50.2 | CC(C)C(=O)Nc1cc(-c2[nH]c3c(c2Nc2ccccc2)C(=O)CC(C)(C)C3)ccn1 [Example 132, N-{4-[6,6-dimethyl-4-oxo-3-(phenylamino)-4,5,6,7-tetrahydro-1H-indol-2-yl]pyridin-2-yl}-2-methylpropanamide]
36 | 48.2 | CC1(C)CC(=O)c2c([nH]c(-c3ccncc3)c2Nc2ccccc2C#N)C1 [Example 146, 2-{[6,6-dimethyl-4-oxo-2-(pyridin-4-yl)-4,5,6,7-tetrahydro-1H-indol-3-yl]amino}benzonitrile]
37 | 40.2 | CCn1c2c(c(Nc3ccccc3)c1-c1ccncc1)C(=O)CCC2 [Example 170, 1-ethyl-3-(phenylamino)-2-(pyridin-4-yl)-1,5,6,7-tetrahydro-4H-indol-4-one]
